Laboratory results published in patent US9556153B1, “JAK1 inhibitors” (Eli Lilly and Company, priority 2015, dated 2017).

Tests used:
HCC827 xenograft tumor = assay: Efficacy Study in HCC827 Xenograft Tumor Model; format: in vivo, mouse; details: oral gavage, 28 days, HCC827 xenograft mice
Procedure: Efficacy Study in HCC827 Xenograft Tumor Model
The purpose of this assay is to measure the ability of compounds to inhibit tumor growth in the HCC827 xenograft mouse model. Grow HCC827 cells (ATCC# CRL-2868, Lot#59392891) according to ATCC specifications at the lowest possible passage number available. Culture cells and maintain in RPMI-1640 supplemented with 10% FBS and incubate at 37° C. in 5% CO2. Harvest cells from flasks using TryPLE, rinse twice in DPBS, resuspend in HBSS, and mix with BD Biosciences basement membrane matrix (MATRIGEL®) to cell suspension to achieve a 1:1 cell/matrix ratio yielding an inoculation volume of 0.2 ml cell/matrix suspension containing 5e^6 cells. Maintain cell suspensions on ice throughout the inoculation procedure and start implantations within one hour after cell culture harvest. Administer implantations subcutaneously in the right rear flank of female CB17 SCID mice obtained from Harlan (18-20 g). Feed mice Harlan Teklad Protein Extruded 2920X ad libitum and provide water with the rack watering system. Allow the implanted tumor cells to grow as a solid tumor and measure twice a week along with body weight beginning the seventh day after implantation. Determine tumor volumes using the calculation: 0.536*L*W^2. After tumor volume reaches approximately 150-200 mm^3, randomize animals and place into groups containing 5-8 animals each. Formulate the compounds in 1% HEC vehicle containing 0.25% Tween 80 and 0.05% antifoam with 1.1 molar equivalent of methanesulfonic acid to form an in situ salt (1.1 mL of 1N methanesulfonic acid per (insert molecular weight) mg of compound). Store test compound at RT. Formulate compounds once per week, and store at RT. […] Calculate doses based on the most recent group mean body weight. Administer compounds by oral gavage for 28 days either BID or QD depending on dosage.

JAK1 = JAK1 (Homo sapiens, UniProt P23458); assay: Human whole blood assay: pSTAT3 (JAK1) in lymphocytes; format: cell-based; design: endogenous in cells; host or cells: human whole blood, CD4+ lymphocytes; details: HWB
Text: Human Whole Blood Assays: Determination of pSTAT3 (JAK1) and pSTAT5 (JAK2) in Lymphocytes and Monocytes
Human whole blood (HWB) assays were developed and validated to determine the JAK1 and JAK2 selectivity of test compounds.
Dilute the test compounds, 10 points, (1:3) in DMSO 100% and a step down in PBS+0.1% BSA. Use tofacitinib as a reference compound in each plate, as well as a maximum signal (stimulated wells) and a minimum signal (no stimulated wells) in order to normalize data. Obtain a pool of HWB from 4 different healthy donors. Plate the blood in a 96 well plate using a Tecan Evo 96w and incubate with test compounds for 1 h at RT. After this time of incubation, stimulate HWB with both IL6 (206-IL, R&D System) and GM-CSF (PHC2015, Life Technologies) for 15 more minutes. […]
The final concentrations in the assay are the following: 100 μM for compounds, 50 μM for tofacitinib, 0.1 μg/mL IL6, 0.038 μg/mL GM-CSF and 1% DMSO. […] Incubate the antibodies for 1 h in dark at RT, then wash cells 2× and read on Cytometer Macsquant (Miltenyi Biotec). Gate the data on CD4+(lymphocytes) and CD4Low CD33Hi (monocytes), to measure the fluorescence from cells expressing pSTAT3 and pSTAT5 respectively. Analyze the data using FlowJo v_10 and the normalize the median of fluorescence versus maximum and minimum signal to determine the IC50s. […]

Sequence of JAK1 (P23458 whole entry): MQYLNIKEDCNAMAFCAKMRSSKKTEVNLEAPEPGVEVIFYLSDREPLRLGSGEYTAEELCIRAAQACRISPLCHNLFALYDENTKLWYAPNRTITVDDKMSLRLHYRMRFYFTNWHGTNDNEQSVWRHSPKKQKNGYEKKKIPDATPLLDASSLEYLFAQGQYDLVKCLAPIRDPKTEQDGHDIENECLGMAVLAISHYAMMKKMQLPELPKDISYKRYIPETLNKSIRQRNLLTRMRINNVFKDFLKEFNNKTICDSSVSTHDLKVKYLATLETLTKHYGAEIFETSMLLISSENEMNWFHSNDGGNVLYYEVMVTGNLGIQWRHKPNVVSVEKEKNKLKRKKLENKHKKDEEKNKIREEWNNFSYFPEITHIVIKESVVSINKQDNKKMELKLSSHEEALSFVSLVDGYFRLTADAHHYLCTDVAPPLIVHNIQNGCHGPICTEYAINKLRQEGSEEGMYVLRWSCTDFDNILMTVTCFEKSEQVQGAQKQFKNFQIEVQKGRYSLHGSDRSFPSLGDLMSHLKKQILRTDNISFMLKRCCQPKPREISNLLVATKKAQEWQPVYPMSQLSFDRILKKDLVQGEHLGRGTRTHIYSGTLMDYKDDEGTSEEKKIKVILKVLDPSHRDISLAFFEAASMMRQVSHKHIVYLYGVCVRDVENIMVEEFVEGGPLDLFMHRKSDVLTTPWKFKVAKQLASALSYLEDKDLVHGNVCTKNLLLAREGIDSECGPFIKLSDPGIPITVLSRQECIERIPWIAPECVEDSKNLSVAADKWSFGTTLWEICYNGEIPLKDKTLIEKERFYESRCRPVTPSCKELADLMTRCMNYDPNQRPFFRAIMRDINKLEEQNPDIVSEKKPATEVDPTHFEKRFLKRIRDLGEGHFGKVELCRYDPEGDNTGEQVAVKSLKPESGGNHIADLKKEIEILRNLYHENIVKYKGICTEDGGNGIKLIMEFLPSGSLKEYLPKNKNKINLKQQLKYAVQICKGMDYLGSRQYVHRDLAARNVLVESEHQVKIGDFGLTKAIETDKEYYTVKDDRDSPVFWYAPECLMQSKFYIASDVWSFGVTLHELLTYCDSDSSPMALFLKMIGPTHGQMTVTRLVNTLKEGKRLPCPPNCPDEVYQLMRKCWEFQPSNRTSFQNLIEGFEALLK

IC50 (JAK1; IL6 stimulated, CD4+ lymphocytes, n=3): 2.4 ± 0.64 µM | potency for JAK1 over JAK2 in a human whole blood assay (JAK1; JAK1 over JAK2): approximately 5 ×
Compound: Cc1cc(Nc2cc(O[C@H]3CC[C@@H](NC[C@@H](O)C(F)(F)F)CC3)cc3c2ncn3C)nn1C [Example 1, (2R)-3-{[cis-4-({4-[(1,5-Dimethyl-1H-pyrazol-3-yl)amino]-1-methyl-1H-benzimidazol-6-yl}oxy)cyclohexyl]amino}-1,1,1-trifluoropropan-2-ol]
tumor growth inhibition (HCC827 xenograft tumor; 30 mg/kg BID): 31% | tumor regression (HCC827 xenograft tumor; 60 mg/kg BID): 22% | tumor regression (HCC827 xenograft tumor; 120 mg/kg QD): 22%
